We go through 25 molecules from US11174251B2, “Compositions and methods for inhibition of the JAK pathway” (Rigel Pharmaceuticals, Inc., priority 2010, dated 2021).

Counter-ions that a name gives are not always drawn.

For this test, the target named is T1, JAK3 (Homo sapiens, UniProt P52333).
T1 construct: The Ramos B-cell line was acquired from ATCC (ATCC Catalog No. CRL-1596); host or cells: Ramos B-cell line (human)
T1 sequence (P52333 1-1124): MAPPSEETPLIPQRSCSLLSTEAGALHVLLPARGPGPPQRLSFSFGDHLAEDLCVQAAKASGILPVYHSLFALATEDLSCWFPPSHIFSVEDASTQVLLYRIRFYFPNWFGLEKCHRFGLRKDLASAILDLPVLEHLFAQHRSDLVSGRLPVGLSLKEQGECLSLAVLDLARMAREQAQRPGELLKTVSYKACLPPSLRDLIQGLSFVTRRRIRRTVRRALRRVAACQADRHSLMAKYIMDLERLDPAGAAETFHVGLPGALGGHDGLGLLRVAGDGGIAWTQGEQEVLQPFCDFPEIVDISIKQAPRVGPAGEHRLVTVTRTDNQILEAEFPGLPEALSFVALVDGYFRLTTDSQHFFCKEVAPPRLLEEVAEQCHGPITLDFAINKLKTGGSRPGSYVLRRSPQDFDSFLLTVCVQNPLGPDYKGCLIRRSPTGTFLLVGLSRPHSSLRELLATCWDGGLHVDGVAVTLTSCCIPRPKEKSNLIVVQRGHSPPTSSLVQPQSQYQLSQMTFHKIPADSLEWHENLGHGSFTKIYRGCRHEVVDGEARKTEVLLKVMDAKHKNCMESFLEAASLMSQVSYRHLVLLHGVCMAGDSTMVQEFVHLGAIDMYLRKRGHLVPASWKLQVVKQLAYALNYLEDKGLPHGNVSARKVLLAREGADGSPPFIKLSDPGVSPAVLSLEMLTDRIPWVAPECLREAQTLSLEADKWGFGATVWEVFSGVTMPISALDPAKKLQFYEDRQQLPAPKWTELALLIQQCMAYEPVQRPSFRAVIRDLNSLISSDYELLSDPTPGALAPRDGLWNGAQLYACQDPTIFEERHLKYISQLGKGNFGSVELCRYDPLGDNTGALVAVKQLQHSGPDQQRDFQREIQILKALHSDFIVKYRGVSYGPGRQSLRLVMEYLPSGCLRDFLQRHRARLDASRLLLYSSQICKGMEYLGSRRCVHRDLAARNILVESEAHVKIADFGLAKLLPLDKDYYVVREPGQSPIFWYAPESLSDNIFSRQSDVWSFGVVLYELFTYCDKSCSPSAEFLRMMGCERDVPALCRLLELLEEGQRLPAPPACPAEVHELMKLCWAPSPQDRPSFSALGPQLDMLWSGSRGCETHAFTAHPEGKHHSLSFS
Briefly: Assay for CD23 expression on Ramos B-cells stimulated by IL-4 (Table IV: ability to inhibit JAK3 activity). It counts as cell-based. The following applies: tested under conditions described in Example 3 (so in the source). The method, boiled down:
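IL-4-induced CD23 surface expression on human Ramos B cells, detected by flow cytometry after 20–24 h stimulation (IL-4 final 50 units/mL). Compound or DMSO added 1 h beforehand at 37 °C; cells kept in RPMI with 5% serum.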

For `Cc1cnc(Nc2cc(C)c(C)c(C)c2)nc1Nc1ccc2oc(=O)n(COP(=O)(O)O)c2c1` [Compound I-130, 5-methyl-N4-[3-(phosphonooxy)methyl-2-oxo-2,3-dihydro-1,3-benzoxazol-5-yl]-N2-(3,4,5-trimethyl)phenyl-2,4-pyrimidinediamine arginine salt], the IC50 was below 500 nM.
As for `COc1ccc(Nc2ncc(F)c(Nc3ccc4oc(=O)[nH]c4c3)n2)cc1OCC(=O)NC1CC1` [Compound I-213, N2-[3-(cyclopropylaminocarbonylmethoxy)-4-methoxy]phenyl-5-fluoro-N4-(2-oxo-2,3-dihydro-1,3-benzoxazol-5-yl)-2,4-pyrimidinediamine], the figure is below 500 nM; as for `COc1ccc(Nc2ncc(C)c(Nc3ccc4oc(=O)[nH]c4c3)n2)c(F)c1OC` [Compound I-102, 5-(2-(2-fluoro-3,4-d6-dimethoxyphenylamino)-5-methylpyrimidin-4-ylamino)benzo[d]oxazol-2(3H)-one], below 500 nM.
`CS(=O)(=O)c1cc(Nc2ncc(F)c(Nc3ccc4oc(=O)[nH]c4c3)n2)ccc1F` [Compound I-168, 5-(2-(4-fluoro-3-(methylsulfonyl)phenylamino)-5-fluoropyrimidin-4-ylamino)benzo[d]oxazol-2(3H)-one trifluoroacetate salt] registered an IC50 below 500 nM.
As for `COc1cc(Nc2ncc(F)c(Nc3ccc4oc(=O)[nH]c4c3)n2)cc(C)c1C` [Compound I-195, 5-(2-(3-methoxy-4,5-dimethylphenylamino)-5-fluoropyrimidin-4-ylamino)benzo[d]oxazol-2(3H)-one trifluoroacetate salt], the IC50 is below 500 nM.
For `COC(=O)c1c(C)cc(Nc2ncc(C)c(Nc3ccc4oc(=O)[nH]c4c3)n2)cc1C` [Compound I-138, N2-(3,5-dimethyl-4-methoxycarbonyl)phenyl-5-methyl-N4-(2-oxo-2,3-dihydro-1,3-benzoxazol-5-yl)-2,4-pyrimidinediamine], the IC50 is below 500 nM.
As for `NC(=O)c1ccc(Nc2ncc(Cl)c(Nc3ccc4oc(=O)[nH]c4c3)n2)cc1` [Compound I-11, 4-(5-chloro-4-(2-oxo-2,3-dihydrobenzo[d]oxazol-5-ylamino)pyrimidin-2-ylamino)benzamide trifluoroacetate salt], the figure is below 500 nM.
As for `COc1ccc(Nc2ncc(F)c(Nc3cc(C)c4oc(=O)[nH]c4c3)n2)cc1C` [Compound I-178, 5-(2-(4-methoxy-3-methylphenylamino)-5-fluoropyrimidin-4-ylamino)-7-methylbenzo[d]oxazol-2(3H)-one trifluoroacetate salt], the figure is below 500 nM; as for `Cc1ccc(Nc2ncc(Cl)c(Nc3ccc4oc(=O)[nH]c4c3)n2)cc1C` [Compound I-5, 5-(5-chloro-2-(3,4-dimethylphenylamino)pyrimidin-4-ylamino)benzo[d]oxazol-2(3H)-one trifluoroacetate salt], below 500 nM; as for `COC(=O)c1cnc(Nc2ccc(C)c(OC)c2)nc1Nc1ccc2oc(=O)[nH]c2c1` [Compound I-56, 2-(3-Methoxy-4-methyl-phenylamino)-4-(2-oxo-2,3-dihydro-benzooxazol-5-ylamino)-pyrimidine-5-carboxylic acid methyl ester trifluoroacetate salt], above 10000 nM.
As for `Cc1cc(C)cc(Nc2ncc(Cl)c(Nc3ccc4oc(=O)[nH]c4c3)n2)c1` [Compound I-10, 5-(5-chloro-2-(3,5-dimethylphenylamino)pyrimidin-4-ylamino)benzo[d]oxazol-2(3H)-one trifluoroacetate salt], the figure is below 500 nM; as for `COc1cc(Nc2ncc(F)c(Nc3ccc4oc(=O)[nH]c4c3)n2)c(F)cc1C` [Compound I-123, 5-(5-fluoro-2-(2-fluoro-5-methoxy-4-methylphenylamino)pyrimidin-4-ylamino)benzo[d]oxazol-2(3H)-one trifluoroacetate salt], 5000 to 10000 nM.
Take `Cc1cc(Nc2ncc(C)c(Nc3ccc4oc(=O)[nH]c4c3)n2)ncc1C#N` [II-22, N2-(5-cyano-4-methylpyridin-2-yl)-5-methyl-N4-(2-oxo-2,3-dihydro-1,3-benzoxazol-5-yl)-2,4-pyrimidinediamine]: the IC50 fell in the range of 500 to 5000 nM.
Molecule `Cc1cc(Nc2ncc(F)c(Nc3ccc4oc(=O)[nH]c4c3)n2)cc(C)c1C` [Compound I-214, 5-fluoro-N2-(3,4,5-trimethyl)phenyl-N4-(2-oxo-2,3-dihydro-1,3-benzoxazol-5-yl)-2,4-pyrimidinediamine] returned an IC50 above 10000 nM.
For `CCCCc1ccc(Nc2ncc(C)c(Nc3ccc4oc(=O)[nH]c4c3)n2)cc1C` [Compound I-148, N2-(4-n-butyl-3-methyl)phenyl-5-methyl-N4-(2-oxo-2,3-dihydro-1,3-benzoxazol-5-yl)-2,4-pyrimidinediamine], the IC50 fell in the range of 5000 to 10000 nM.
In turn, `COCCOc1ccc(Nc2ncc(Cl)c(Nc3ccc4oc(=O)[nH]c4c3)n2)c(F)c1OCCOC` [Compound I-78, 5-(5-chloro-2-(2-fluoro-3,4-bis(2-methoxyethoxy)phenylamino)pyrimidin-4-ylamino)benzo[d]oxazol-2(3H)-one trifluoroacetate salt] yielded a 50% inhibitory concentration (IC50) below 500 nM.
Molecule `O=C1CCc2cc(Nc3ncc(F)c(Nc4ccc5oc(=O)[nH]c5c4)n3)ccc2N1` [II-26, 6-(4-(2,3-dihydro-2-oxobenzo[d]oxazol-5-ylamino)-5-fluoropyrimidin-2-ylamino)-3,4-dihydroquinolin-2(1H)-one trifluoroacetate salt] showed an IC50 below 500 nM.
For `COc1c(F)ccc(Nc2ncc(F)c(Nc3cc(C)c4oc(=O)[nH]c4c3)n2)c1F` [Compound I-192, 5-(2-(2,4-difluoro-3-methoxyphenylamino)-5-fluoropyrimidin-4-ylamino)-7-methylbenzo[d]oxazol-2(3H)-one trifluoroacetate salt], the IC50 was in the range of 500 to 5000 nM.
In turn, `COc1c(F)ccc(Nc2ncc([N+](=O)[O-])c(Nc3ccc4oc(=O)[nH]c4c3)n2)c1F` [Compound I-43, 5-(2-(2,4-difluoro-3-methoxyphenylamino)-5-nitropyrimidin-4-ylamino)benzo[d]oxazol-2(3H)-one trifluoroacetate salt] had a half-maximal inhibitory concentration (IC50) above 10000 nM.
For `COC(=O)c1cnc(Nc2ccc(F)c(OC)c2F)nc1Nc1ccc2oc(=O)[nH]c2c1` [Compound I-48, 2-(2,4-Difluoro-3-methoxy-phenylamino)-4-(2-oxo-2,3-dihydro-benzooxazol-5-ylamino)-pyrimidine-5-carboxylic acid methyl ester trifluoroacetate salt], the IC50 is above 10000 nM.
For `Cc1ccc(Nc2ncc(C)c(Nc3ccc4oc(=O)[nH]c4c3)n2)cc1C(=O)O` [Compound I-152, N2-(3-carboxy-4-methyl)phenyl-5-methyl-N4-(2-oxo-2,3-dihydro-1,3-benzoxazol-5-yl)-2,4-pyrimidinediamine], the half-maximal inhibitory concentration (IC50) lay in the range of 5000 to 10000 nM.
The same measure for `COc1c(F)ccc(Nc2ncc(F)c(Nc3cc(F)c4oc(=O)[nH]c4c3)n2)c1F` [Compound I-193, 5-(2-(2,4-difluoro-3-methoxyphenylamino)-5-fluoropyrimidin-4-ylamino)-7-fluorobenzo[d]oxazol-2(3H)-one trifluoroacetate salt]: 500 to 5000 nM; for `CN1CCN(c2cc(F)cc(Nc3ncc(F)c(Nc4ccc5oc(=O)[nH]c5c4)n3)c2)CC1` [Compound I-170, 5-(2-(3-fluoro-5-(4-methylpiperazin-1-yl)phenylamino)-5-fluoropyrimidin-4-ylamino)benzo[d]oxazol-2(3H)-one ditrifluoroacetate salt]: below 500 nM.
As to `COC(=O)c1cc(Nc2ncc(C)c(Nc3ccc4oc(=O)[nH]c4c3)n2)cc(C)c1F` [Compound I-153, N2-(4-fluoro-3-methoxycarbonyl-5-methyl)phenyl-5-methyl-N4-(2-oxo-2,3-dihydro-1,3-benzoxazol-5-yl)-2,4-pyrimidinediamine], the IC50 is below 500 nM.
The same measure for `COCCOc1c(C)ccc(Nc2nccc(Nc3ccc4oc(=O)[nH]c4c3)n2)c1F` [Compound I-62, 5-(2-(2-fluoro-3-(2-methoxyethoxy)-4-methylphenylamino)pyrimidin-4-ylamino)benzo[d]oxazol-2(3H)-one]: 500 to 5000 nM.

For orientation: IC50 means the point on the concentration scale where inhibition reaches its midpoint.
